In paper PMC11511665 (2024):
Each block holds one molecule with its values, some of them ahead of it.

Legend:
[1] = test system: Clivia (R8 aptamer, GAAA tetraloop) (RNA, aptamer) GGAAGAUUGUAAACAUGCCGAAAGGCAGACACUUCC; test: X-ray crystallography; conditions: Mg2+ (0.05 M MgCl2); 0.1 M HEPES pH 7.5, 30% PEG MME 550, 16 °C
[2] = test system: U7G (RNA, aptamer) GGAAGAGUGUAAACAUGCCGAAAGGCAGACACUUCC; test: fluorescence titration, Hill fit; conditions: 100 mM KCl, 5 mM MgCl2; 40 mM HEPES pH 7.4; 20 nM RNA
[3] = test system: M3 (A11C/A12C/A13C) (RNA, aptamer) GGAAGAUUGUCCCCAUGCCGAAAGGCAGACACUUCC; test: fluorescence activation; conditions: 100 mM KCl, 5 mM MgCl2; 40 mM HEPES pH 7.4; 1 μM fluorophore, 5 μM RNA
[4] = test system: U7A (RNA, aptamer) GGAAGAAUGUAAACAUGCCGAAAGGCAGACACUUCC; test: fluorescence titration, Hill fit; conditions: 100 mM KCl, 5 mM MgCl2; 40 mM HEPES pH 7.4; 20 nM RNA
[5] = test system: Clivia_III (III_R8) (RNA, aptamer) GGAAGAUUGUAAACAGCGAGAUUGUAAACAGCGAGAUUGUAAACAUGCCGAAAGGCAGACACUCGCGACACUCGCGACACUUUC; test: X-ray crystallography; conditions: 0.2 M MgCl2; 20% PEG 3350, 16 °C
[6] = test system: M5 (U8C/A29G) (RNA, aptamer) GGAAGAUCGUAAACAUGCCGAAAGGCAGGCACUUCC; test: fluorescence activation; conditions: 100 mM KCl, 5 mM MgCl2; 40 mM HEPES pH 7.4; 1 μM fluorophore, 5 μM RNA
[7] = test system: M4 (A11U/A12U/A13U) (RNA, aptamer) GGAAGAUUGUUUUCAUGCCGAAAGGCAGACACUUCC; test: fluorescence activation; conditions: 100 mM KCl, 5 mM MgCl2; 40 mM HEPES pH 7.4; 1 μM fluorophore, 5 μM RNA
[8] = test system: U7C (RNA, aptamer) GGAAGACUGUAAACAUGCCGAAAGGCAGACACUUCC; test: fluorescence titration, Hill fit; conditions: 100 mM KCl, 5 mM MgCl2; 40 mM HEPES pH 7.4; 20 nM RNA
[9] = test system: Clivia_IV (IV_R8) (RNA, aptamer) GGAAGAUUGUAAACAGCGAGAUUGUAAACAGCGAGAUUGUAAACAGCGAGAUUGUAAACAUGCCGAAAGGCAGACACUCGCGACACUCGCGACACUCGCGACACUUUC; test: fluorescence activation; conditions: 100 mM KCl, 5 mM MgCl2; 40 mM HEPES pH 7.4
[10] = test system: M2 (A11G/A12G/A13G) (RNA, aptamer) GGAAGAUUGUGGGCAUGCCGAAAGGCAGACACUUCC; test: fluorescence activation; conditions: 100 mM KCl, 5 mM MgCl2; 40 mM HEPES pH 7.4; 1 μM fluorophore, 5 μM RNA
[11] = test system: M8 (G28U) (RNA, aptamer) GGAAGAUUGUAAACAUGCCGAAAGGCAUACACUUCC; test: fluorescence activation; conditions: 100 mM KCl, 5 mM MgCl2; 40 mM HEPES pH 7.4; 1 μM fluorophore, 5 μM RNA
[12] = test system: M1 (delete U7; Del-U7) (RNA, aptamer) GGAAGAUGUAAACAUGCCGAAAGGCAGACACUUCC; test: fluorescence activation; conditions: 100 mM KCl, 5 mM MgCl2; 40 mM HEPES pH 7.4; 1 μM fluorophore, 5 μM RNA
[13] = test system: M11 (add 2bp in P1; Ad-2bp-P1) (RNA, aptamer) GGGGAAGAUUGUAAACAUGCCGAAAGGCAGACACUUCCCC; test: fluorescence titration, Hill fit; conditions: 100 mM KCl, 5 mM MgCl2; 40 mM HEPES pH 7.4; 20 nM RNA
[14] = test system: M10 (delete 2bp in P1; Del-2bp-P1) (RNA, aptamer) GAGAUUGUAAACAUGCCGAAAGGCAGACACUC; test: fluorescence titration, Hill fit; conditions: 100 mM KCl, 5 mM MgCl2; 40 mM HEPES pH 7.4; 20 nM RNA
[15] = test system: M13 (add 2bp in P2; Ad-2bp-P2) (RNA, aptamer) GGAAGAUUGUAAACAUGCCGCGAAAGCGGCAGACACUUCC; test: fluorescence titration, Hill fit; conditions: 100 mM KCl, 5 mM MgCl2; 40 mM HEPES pH 7.4; 20 nM RNA
[16] = test system: M6 (U8A/A29U) (RNA, aptamer) GGAAGAUAGUAAACAUGCCGAAAGGCAGUCACUUCC; test: fluorescence activation; conditions: 100 mM KCl, 5 mM MgCl2; 40 mM HEPES pH 7.4; 1 μM fluorophore, 5 μM RNA
[17] = test system: Clivia (R8 aptamer, GAAA tetraloop) (RNA, aptamer) GGAAGAUUGUAAACAUGCCGAAAGGCAGACACUUCC; test: X-ray crystallography, 1.6 Å; conditions: Mg2+ (0.05 M MgCl2); 0.1 M HEPES pH 7.5, 30% PEG MME 550, 16 °C
[18] = test system: Clivia_V (V_R8) (RNA, aptamer) GGAAGAUUGUAAACAGCGAGAUUGUAAACAGCGAGAUUGUAAACAGCGAGAUUGUAAACAGCGAGAUUGUAAACAUGCCGAAAGGCAGACACUCGCGACACUCGCGACACUCGCGACACUCGCGACACUUUC; test: fluorescence activation; conditions: 100 mM KCl, 5 mM MgCl2; 40 mM HEPES pH 7.4
[19] = test system: M7 (A15G/G28A) (RNA, aptamer) GGAAGAUUGUAAACGUGCCGAAAGGCAAACACUUCC; test: fluorescence activation; conditions: 100 mM KCl, 5 mM MgCl2; 40 mM HEPES pH 7.4; 1 μM fluorophore, 5 μM RNA
[20] = test system: M9 (A15C) (RNA, aptamer) GGAAGAUUGUAAACCUGCCGAAAGGCAGACACUUCC; test: fluorescence activation; conditions: 100 mM KCl, 5 mM MgCl2; 40 mM HEPES pH 7.4; 1 μM fluorophore, 5 μM RNA
[21] = test system: Clivia (R8 aptamer, GAAA tetraloop) (RNA, aptamer) GGAAGAUUGUAAACAUGCCGAAAGGCAGACACUUCC; test: fluorescence titration, Hill fit; conditions: 100 mM KCl, 5 mM MgCl2; 40 mM HEPES pH 7.4; 20 nM RNA
[22] = test system: Clivia_VI (VI_R8) (RNA, aptamer) GGAAGAUUGUAAACAGCGAGAUUGUAAACAGCGAGAUUGUAAACAGCGAGAUUGUAAACAGCGAGAUUGUAAACAGCGAGAUUGUAAACAUGCCGAAAGGCAGACACUCGCGACACUCGCGACACUCGCGACACUCGCGACACUCGCGACACUUUC; test: fluorescence activation; conditions: 100 mM KCl, 5 mM MgCl2; 40 mM HEPES pH 7.4
[23] = test system: M12 (delete 2bp in P2; Del-2bp-P2) (RNA, aptamer) GGAAGAUUGUAAACACCGAAAGGGACACUUCC; test: fluorescence titration, Hill fit; conditions: 100 mM KCl, 5 mM MgCl2; 40 mM HEPES pH 7.4; 20 nM RNA
[24] = test system: Clivia_II (II_R8) (RNA, aptamer) GGAAGAUUGUAAACAGCGAGAUUGUAAACAUGCCGAAAGGCAGACACUCGCGACACUUUC; test: fluorescence activation; conditions: 100 mM KCl, 5 mM MgCl2; 40 mM HEPES pH 7.4

binding [1]: yes
Structure (SMILES): CN1C(=O)/C(=C/c2cc(F)c(O)c(F)c2)N=C1/C=C/c1ccc(C#N)cc1

binding [1]: yes
Structure (SMILES): CN1C(=O)/C(=C/c2cc(F)c(O)c(F)c2)N=C1/C=C/c1ccc(O)cc1

binding [1]: yes
Structure (SMILES): CN1C(=O)/C(=C/c2cc(F)c(O)c(F)c2)N=C1/C=C/c1ccccc1

Kd [2]: 152 ± 12 nM
binding [3]: no
Kd [4]: 107 ± 12 nM
binding [5]: yes
binding [6]: no
binding [7]: no
Kd [8]: 46 ± 3 nM
binding [9]: yes
binding [10]: no
binding [11]: weak
binding [12]: no
Kd [13]: 61 nM
Kd [14]: 84 nM
Kd [15]: 55 nM
binding [16]: no
binding [17]: yes
binding [18]: yes
binding [19]: no
binding [20]: no
Kd [21]: 71 ± 15 nM
binding [22]: yes
Kd [23]: 44 nM
binding [24]: yes
Structure (SMILES): CN1C(=O)/C(=C/c2ccc(N(C)CCO)cc2)N=C1/C=C/c1ccccc1
